≈ marks a conversion by molar mass, not a printed value.
Assays:
Enterococcus spp. = assay: minimum inhibitory concentration (MIC)
Protocol: (§1)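 Broth microdilution MIC (Sensititre BOPO7F bovine plate, CLSI methods) of 19 antimicrobials against field isolates of P. multocida, M. haemolytica, H. somni (deep nasopharyngeal swabs) and E. coli, Enterococcus spp. (rectal swabs) from weaned dairy heifers. Incubation 16-24 h at 35 C. MIC is the lowest concentration preventing visible growth. Values with <= or > lie at the tested range limits. Trimethoprim-sulfamethoxazole is given as the trimethoprim component of a 1:19 mixture.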

Histophilus somni = assay: minimum inhibitory concentration (MIC)
Protocol: as §1

CN[C@@H]1[C@H](O)[C@H](NC)[C@H]2O[C@@]3(O)C(=O)C[C@@H](C)O[C@H]3O[C@@H]2[C@H]1O [Spectinomycin]
minimum inhibitory concentration [µg/mL]
Settings	Enterococcus spp.	Histophilus somni
isolate (source animal id): 2	64 (≈ 193 µM)	–
isolate (source animal id): 3	–	> 64
isolate (source animal id): 4	–	> 64
isolate (source animal id): 7	–	≤ 8
isolate (source animal id): 14	–	16 (≈ 48.1 µM)
isolate (source animal id): 15	–	> 64
isolate (source animal id): 17	–	≤ 8
isolate (source animal id): 18	–	> 64
isolate (source animal id): 20	–	16 (≈ 48.1 µM)
isolate (source animal id): 23	–	16 (≈ 48.1 µM)
isolate (source animal id): 35	> 64	–
isolate (source animal id): 42	64 (≈ 193 µM)	–
isolate (source animal id): 44	64 (≈ 193 µM)	–
isolate (source animal id): 45	–	16 (≈ 48.1 µM)
isolate (source animal id): 53	–	≤ 8
isolate (source animal id): 79	64 (≈ 193 µM)	–
isolate (source animal id): 83	–	≤ 8
isolate (source animal id): 88	32 (≈ 96.3 µM)	> 64
isolate (source animal id): 91	32 (≈ 96.3 µM)	–
isolate (source animal id): 92	16 (≈ 48.1 µM)	32 (≈ 96.3 µM)
isolate (source animal id): 93	–	64 (≈ 193 µM)
isolate (source animal id): 99	–	16 (≈ 48.1 µM)
isolate (source animal id): 100	–	16 (≈ 48.1 µM)
isolate (source animal id): 105	–	16 (≈ 48.1 µM)
isolate (source animal id): 107	–	16 (≈ 48.1 µM)
isolate (source animal id): 108	–	16 (≈ 48.1 µM)
isolate (source animal id): 109	–	16 (≈ 48.1 µM)
isolate (source animal id): 110	–	32 (≈ 96.3 µM)
isolate (source animal id): 111	32 (≈ 96.3 µM)	–
isolate (source animal id): 117	–	> 64
isolate (source animal id): 121	–	> 64
isolate (source animal id): 122	> 64	–
isolate (source animal id): 123	64 (≈ 193 µM)	> 64
isolate (source animal id): 124	–	> 64
isolate (source animal id): 127	–	> 64
isolate (source animal id): 128	–	> 64
isolate (source animal id): 130	–	> 64
isolate (source animal id): 132	–	> 64
isolate (source animal id): 133	64 (≈ 193 µM)	–
isolate (source animal id): 135	–	≤ 8
isolate (source animal id): 140	–	> 64
isolate (source animal id): 141	–	16 (≈ 48.1 µM)
isolate (source animal id): 142	–	32 (≈ 96.3 µM)
isolate (source animal id): 144	–	> 64
isolate (source animal id): 146	–	64 (≈ 193 µM)
isolate (source animal id): 147	–	16 (≈ 48.1 µM)
isolate (source animal id): 151	–	> 64
isolate (source animal id): 153	–	> 64
isolate (source animal id): 154	–	16 (≈ 48.1 µM)
isolate (source animal id): 156	–	16 (≈ 48.1 µM)
isolate (source animal id): 157	–	> 64
isolate (source animal id): 158	64 (≈ 193 µM)	–
isolate (source animal id): 168	64 (≈ 193 µM)	–
isolate (source animal id): 169	64 (≈ 193 µM)	–
isolate (source animal id): 171	64 (≈ 193 µM)	–
isolate (source animal id): 175	64 (≈ 193 µM)	–
isolate (source animal id): 176	–	> 64
isolate (source animal id): 177	64 (≈ 193 µM)	–
isolate (source animal id): 181	64 (≈ 193 µM)	–
isolate (source animal id): 182	64 (≈ 193 µM)	–
isolate (source animal id): 183	64 (≈ 193 µM)	> 64
isolate (source animal id): 186	–	> 64
isolate (source animal id): 187	64 (≈ 193 µM)	–
isolate (source animal id): 190	64 (≈ 193 µM)	–
isolate (source animal id): 194	64 (≈ 193 µM)	–
isolate (source animal id): 195	64 (≈ 193 µM)	–
isolate (source animal id): 196	–	> 64
isolate (source animal id): 197	64 (≈ 193 µM)	–
isolate (source animal id): 198	–	> 64
isolate (source animal id): 200	–	> 64
isolate (source animal id): 206	–	> 64
isolate (source animal id): 208	–	> 64
isolate (source animal id): 210	–	> 64
isolate (source animal id): 211	64 (≈ 193 µM)	–
isolate (source animal id): 212	–	> 64
isolate (source animal id): 214	64 (≈ 193 µM)	–
isolate (source animal id): 215	–	> 64
isolate (source animal id): 216	–	> 64
isolate (source animal id): 218	–	> 64
isolate (source animal id): 219	–	> 64
isolate (source animal id): 222	64 (≈ 193 µM)	–
isolate (source animal id): 223	64 (≈ 193 µM)	–
isolate (source animal id): 224	–	> 64
isolate (source animal id): 228	64 (≈ 193 µM)	> 64
isolate (source animal id): 230	64 (≈ 193 µM)	> 64
isolate (source animal id): 233	–	64 (≈ 193 µM)
isolate (source animal id): 235	64 (≈ 193 µM)	–
isolate (source animal id): 236	64 (≈ 193 µM)	–
isolate (source animal id): 238	–	> 64
isolate (source animal id): 239	64 (≈ 193 µM)	> 64
isolate (source animal id): 241	64 (≈ 193 µM)	> 64
isolate (source animal id): 242	–	> 64
isolate (source animal id): 243	–	> 64
isolate (source animal id): 244	64 (≈ 193 µM)	–
isolate (source animal id): 245	–	≤ 8
isolate (source animal id): 246	64 (≈ 193 µM)	> 64
isolate (source animal id): 247	64 (≈ 193 µM)	> 64
isolate (source animal id): 248	–	≤ 8
isolate (source animal id): 250	64 (≈ 193 µM)	> 64
isolate (source animal id): 251	–	> 64
isolate (source animal id): 252	64 (≈ 193 µM)	64 (≈ 193 µM)
isolate (source animal id): 254	–	> 64
isolate (source animal id): 258	–	> 64
isolate (source animal id): 259	–	> 64
isolate (source animal id): 262	–	> 64
isolate (source animal id): 264	–	32 (≈ 96.3 µM)
isolate (source animal id): 265	–	16 (≈ 48.1 µM)
isolate (source animal id): 266	–	> 64
isolate (source animal id): 267	–	> 64
isolate (source animal id): 268	32 (≈ 96.3 µM)	–
isolate (source animal id): 269	–	> 64
isolate (source animal id): 271	–	> 64
isolate (source animal id): 272	–	16 (≈ 48.1 µM)
isolate (source animal id): 274	–	> 64
isolate (source animal id): 276	–	≤ 8
isolate (source animal id): 278	–	> 64
isolate (source animal id): 280	–	16 (≈ 48.1 µM)
isolate (source animal id): 281	–	> 64
isolate (source animal id): 282	16 (≈ 48.1 µM)	–
isolate (source animal id): 283	–	> 64
isolate (source animal id): 285	> 64	–
isolate (source animal id): 288	–	> 64
isolate (source animal id): 289	64 (≈ 193 µM)	–
isolate (source animal id): 290	64 (≈ 193 µM)	–
isolate (source animal id): 291	–	> 64
isolate (source animal id): 292	–	> 64
isolate (source animal id): 296	64 (≈ 193 µM)	> 64
isolate (source animal id): 298	64 (≈ 193 µM)	–
isolate (source animal id): 301	32 (≈ 96.3 µM)	–
isolate (source animal id): 306	–	> 64
isolate (source animal id): 310	64 (≈ 193 µM)	–
isolate (source animal id): 320	64 (≈ 193 µM)	–
isolate (source animal id): 331	64 (≈ 193 µM)	–
isolate (source animal id): 333	64 (≈ 193 µM)	–
isolate (source animal id): 336	–	> 64
isolate (source animal id): 337	–	> 64
isolate (source animal id): 341	64 (≈ 193 µM)	> 64

Reference: the supplement of paper PMC8612539
